Experiments:
[1] = test system: NC mice induced to manifest dermatitis; assay: Dermatitis score in dermatitis manifesting NC mouse models (Test Example 2); type: in vivo; settings: 0.01% in 100% ethanol, 200 μl on dorsal back, seven times a week for 4 weeks
Protocol: By suitably modifying a method known to the skilled artisan (Jpn. J. Pharmacol. 76, 175-183 (1998) Jun Hiroi, et al. Effects of Tacrolimus Hydrate (FK-506) Ointment on Spontaneous Dermatitis in NC/Nga Mice), the following test was conducted in order to confirm the antipruritic effect of compounds of the invention.
Animals: Four-week old SPF NC mice (male) were purchased from Japan SLC; right after their arrival, the SPF NC mice were kept together with dermatitis manifesting male NC mice (older than 20 weeks) for 2 weeks under the following conditions so as to induce itch-evoked scratching behavior. […]
Drug administration: To the dorsal backs of the 20-wk NC mice that were induced to manifest dermatitis as the result of cohabitation with the spontaneous dermatitis manifesting NC mice, 100% ethanol, compound No. 7 (0.01%) dissolved in 100% ethanol or tacrolimus (0.1%) dissolved in 100% ethanol was applied from an Eppendorf pipette in 200-μl doses seven times a week for a period of 4 weeks. […] Dermatitis score: Dermatitic symptoms were observed and measured once a week. […]

[2] = biological target: T1, thromboxane (TP) receptor (Homo sapiens, UniProt P21731); assay: Human TP antagonistic action: [3H]SQ29548 binding to human washed platelets
T1 construct: endogenous in cells; host or cells: human washed platelets
T1 sequence (P21731 1-343): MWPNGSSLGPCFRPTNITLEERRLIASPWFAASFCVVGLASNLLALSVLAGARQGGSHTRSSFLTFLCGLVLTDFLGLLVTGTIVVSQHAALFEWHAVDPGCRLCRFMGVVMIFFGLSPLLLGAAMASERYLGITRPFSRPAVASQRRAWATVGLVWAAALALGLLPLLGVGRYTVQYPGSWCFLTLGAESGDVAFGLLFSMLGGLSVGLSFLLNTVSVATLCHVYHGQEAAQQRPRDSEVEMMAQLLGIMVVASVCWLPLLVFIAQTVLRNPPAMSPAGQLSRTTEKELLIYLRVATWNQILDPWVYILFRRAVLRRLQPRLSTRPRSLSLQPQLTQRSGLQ
Protocol: (C) The effect of the active ingredient of the present invention (compound No. 7) on a thromboxane (TP) receptor was measured as compared with the thromboxane agonist U44069 as a positive control drug.
The antagonistic action of the test drug on the [^3H]SQ29548 binding to human washed platelets was investigated on the basis of a documented method (J. Pharmacol. Exp. Ther., vol. 245, pp. 786-792, 1988).

human platelets = assay: Suppression of ADP-induced aggregation of human platelets; type: cell-based; settings: human platelet-rich plasma, ADP (3 μM), Born method
Protocol: (A) Using the active ingredient of the present invention (compound No. 7) and PGD2 as a control for comparison, prostaglandin D receptor binding selectivity was determined with reference to the platelet aggregation suppressing action as the prostaglandin D receptor agonist action. 1. Human Platelet Aggregation Suppressing Action Suppression of ADP-Induced Aggregation of Human Platelets
The test was performed on purchased platelet-rich plasma (PRP) (6×10^8 platelets/mL) and platelet aggregation was measured based on the Born method (Nature, vol. 194, p. 927, 1962). To 100 μL of PRP, 5 μL of a 1 nM-3 μM test drug solution in ethanol was added and the mixture was incubated at 37° C. for 1 minute with stirring at 1000 rpm. To the resulting mixture, 5 μL of an aggregation inducer [ADP (3 μM)] was added to induce platelet aggregation and a maximum percent aggregation (a maximum change in light transmittance that occurred within 5 minutes after the induction of platelet aggregation) was determined by an aggregometer. The percent suppression of aggregation by each test drug was calculated from the maximum percent aggregation by the test drug as relative to the maximum percent aggregation by ethanol instead of the test drug solution and IC50 values were determined from the constructed dose-response curve.

guinea pig platelets = assay: Suppression of ADP-induced aggregation of guinea pig platelets; type: cell-based; settings: Cavia porcellus; guinea pig platelet-rich plasma, ADP (3 μM)
Protocol: Ten-week-old Hartley male guinea pigs were anesthetized with pentobarbital (30 mg/kg, i.p. injected) and a total of 20 mL of blood was sampled into a syringe containing 2.0 mL of 3.8% sodium citrate. The blood was immediately centrifuged at 900 rpm for 10 minutes at 20° C. to recover the supernatant PRP. By further centrifugation at 3000 rpm for 10 minutes at 20° C., the supernatant PPP was recovered. The platelet count of PRP was diluted with PPP to 30×10^4 platelets/μL for subsequent use.
For platelet aggregation measurement, a platelet aggregation measuring instrument (PAM-8C) was employed. To 274 μL of PRP, 1 μL of a 0.287-95.7 nM test drug solution in ethanol was added and the mixture was incubated at 37° C. for 3 minutes with stirring at 1000 rpm. After the incubation, 25 μL of ADP (3 μM) was added to induce platelet aggregation and a maximum percent aggregation for 5 minutes was measured.
The percent suppression of aggregation by each test drug was calculated from the maximum percent aggregation by the test drug as relative to the maximum percent aggregation by ethanol instead of the test drug solution and IC50 values were determined from the constructed dose-response curve.

inhibition at 1 µM ([2]; 1 μM): 7%
inhibition at 10 µM ([2]; concentration of 10 μM): 28%
IC50 (human platelets): 4.27 nM
IC50 (guinea pig platelets): 6.2 ± 2.3 nM
SMILES: O=C(O)CSCCCC[C@@H]1[C@@H](C#C[C@@H](O)C2CCCCC2)[C@H](O)C[C@H]1Cl [Compound No. 7]
dermatitis score suppressing action compared to the vehicle group [1]: significant dermatitis score suppressing action

Source: patent US7737182B2, “Pharmaceuticals for xerosis” (Taisho Pharmaceutical Co., Ltd., priority 2001, dated 2010)
